Results as given in PubChem BioAssay AID1671212.

Biological target: Casein kinase I isoform gamma-3 (Homo sapiens) (UniProt Q9Y6M4)
Assay: PubChem AID 1671212
Conditions: Z'-LYTE FRET peptide phosphorylation, recombinant CSNK1G3

Casein kinase I isoform gamma-3 (Homo sapiens), sequence (Q9Y6M4 whole entry, looked up, canonical isoform): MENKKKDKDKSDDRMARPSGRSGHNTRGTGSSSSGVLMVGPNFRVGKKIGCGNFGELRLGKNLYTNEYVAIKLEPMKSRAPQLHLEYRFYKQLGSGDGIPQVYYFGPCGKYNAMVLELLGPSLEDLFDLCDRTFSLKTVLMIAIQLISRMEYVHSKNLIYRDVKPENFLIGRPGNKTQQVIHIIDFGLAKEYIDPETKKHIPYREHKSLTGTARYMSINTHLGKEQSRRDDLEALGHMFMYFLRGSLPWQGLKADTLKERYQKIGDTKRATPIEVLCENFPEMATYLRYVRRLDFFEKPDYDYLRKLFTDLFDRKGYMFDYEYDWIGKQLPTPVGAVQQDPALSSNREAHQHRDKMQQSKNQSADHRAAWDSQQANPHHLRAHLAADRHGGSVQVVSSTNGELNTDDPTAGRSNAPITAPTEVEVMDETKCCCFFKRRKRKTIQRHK

IC50: 69.9 µM
SMILES: Brc1c(Br)c(Br)c2n[nH]nc2c1Br
